From patent EP1066315B1 (University of Dundee, priority 1998, dated 2008)
Residues, ends and D or L forms follow the SMILES beside them. *: point of attachment. Fmoc = O=C(OCC1c2ccccc2-c2ccccc21)*

Experiments:
[1] = test system: purified AEP (legumain from pig kidney); assay: Digestion of TTCF with purified AEP in the presence of tetrapeptides; format: biochemical; conditions: 0.2 mg/ml peptide; Fig 3a
Protocol: The invention will now be described by reference to the following Examples and Figures wherein • Figure 1: Processing of TTCF by a leupeptin-insensitive cysteine endopeptidase activity. (a) TTCF was digested in vitro in the presence of disrupted lysosomes (1-2 µg) in the presence or absence of iodoacetamide (1 mM), leupeptin, E64 or pepstatin (each at 0.1 mg/ml). Digestions were in 0.1 M NH4 acetate at pH 4.5 or Na2HPO4, pH 6.0 or 7.0. After 4 hours at 37°C, the reactions were separated by Tris-tricine SDS-PAGE and stained with Coomassie Blue. (b) Cleavage sites: TTCF digestion products were separated by SDS PAGE and electrophoretically transferred to nitrocellulose membrane. Individual fragments numbered 1-6 were subjected to 5 cycles of Edman degradation. N-terminal sequence obtained is shown in bold following upstream residues from TTCF (tetanus toxin numbering). The N-terminal sequence of His-tagged TTCF was obtained for fragments 1 and 3. (c) Residues Asn 1184 and Glu 1184 in TTCF were mutated to alanine (see Methods) and digestions performed as before. The mutation abolishes cleavage at the mutated site but not at the first site (doublet at 47 kD). In this experiment cleavage of the third site was minimal. • Figure 2: TTCF is processed by an asparaginyl endopeptidase. (a) Chromatography of the TTCF processing activity on Mono-S resin. Fractions eluted by NaCl gradient were incubated with the substrates Z-Ala-Ala-Asn-NHMec or Z-Phe-Arg-NHMec in the presence or absence of E64 (trans-epoxysuccinyl-L-leucylamido-(4-guanidino)butane). […] (b) Fractions as above were incubated with 10 µg TTCF in the presence or absence of E64 for 4 hours at 37°C prior to SDS-PAGE analysis. (c) Each fraction was analysed by SDS-PAGE and Western blotting. Electrophoretically transferred material was probed with an affinity purified antiserum raised against the peptide KGIGSGKVLKSGPQC from human legumain^1. • Figure 3: Peptide inhibitors of AEP block asparaginyl endopeptidase activity and TTCF processing in vitro and in vivo. […] Release of 7-amino-4-methyl coumarin was measured after 10, 20 or 30 minutes. […] At different times the cells were washed, fixed in 0.05 % glutaraldehyde and antigen presentation measured using proliferation of different autologous TTCF-specific T cell clones. c, AEP pre-processing of TTCF speeds antigen presentation. […] Presentation was measured after 60 minutes of antigen pulsing using EBV B cells.
We decided to test the possibility that high concentrations of asparagine containing peptides might act as competitive inhibitors. […] To establish that inhibition of AEP was specific, we measured the hydrolysis of different synthetic peptide substrates in the presence and absence of these tetrapeptides.

AEP = assay: Hydrolysis of asparagine peptide substrate by B cell lysosomal fractions; format: biochemical, human; conditions: increasing concentrations of peptide, Fig 3b
Protocol: (§1) The invention will now be described by reference to the following Examples and Figures wherein • Figure 1: Processing of TTCF by a leupeptin-insensitive cysteine endopeptidase activity. (a) TTCF was digested in vitro in the presence of disrupted lysosomes (1-2 µg) in the presence or absence of iodoacetamide (1 mM), leupeptin, E64 or pepstatin (each at 0.1 mg/ml). Digestions were in 0.1 M NH4 acetate at pH 4.5 or Na2HPO4, pH 6.0 or 7.0. After 4 hours at 37°C, the reactions were separated by Tris-tricine SDS-PAGE and stained with Coomassie Blue. (b) Cleavage sites: TTCF digestion products were separated by SDS PAGE and electrophoretically transferred to nitrocellulose membrane. Individual fragments numbered 1-6 were subjected to 5 cycles of Edman degradation. N-terminal sequence obtained is shown in bold following upstream residues from TTCF (tetanus toxin numbering). […] (c) Each fraction was analysed by SDS-PAGE and Western blotting. […] Release of 7-amino-4-methyl coumarin was measured after 10, 20 or 30 minutes. […] At different times the cells were washed, fixed in 0.05 % glutaraldehyde and antigen presentation measured using proliferation of different autologous TTCF-specific T cell clones. c, AEP pre-processing of TTCF speeds antigen presentation. […] Presentation was measured after 60 minutes of antigen pulsing using EBV B cells. […]

cathepsin L/B = assay: Hydrolysis of cathepsin L/B substrate Z-Phe-Arg-NHMec by B cell lysosomal fractions; format: biochemical, human; conditions: Fig 3b
Protocol: as §1

Cathepsin S = assay: Hydrolysis of cathepsin S substrate by B cell lysosomal fractions; format: biochemical, human; conditions: Fig 3b
Protocol: as §1

## C[C@H](NC(=O)OCC1c2ccccc2-c2ccccc21)C(=O)N[C@@H](CCC(=O)O)C(=O)N[C@@H](CC(N)=O)C(=O)N[C@@H](CCCCN)C(N)=O [AENK, Ala-Glu-Asn-Lys-NH] (Fmoc-AENK-NH2)
[1]
  inhibition of processing of TTCF by AEP: substantially inhibited
AEP
  cleavage of Z-Val-Ala-Asn-NHMec: completely blocked
Cathepsin L/B
  hydrolysis of the cathepsin L/B substrate, Z-Phe-Arg-NHMec: had no effect
Cathepsin S
  hydrolysis of the Cathepsin S substrate Z-Val-Val-Arg-HNMec: had no effect
